We go through 3 compounds from patent US8778401B2, “Mesoporous material excipients for poorly aqueous soluble ingredients” (Agency for Science, Technology and Research, priority 2008, dated 2014).

Format in all cases: physicochemical
Data set [1] can be described thus: Dissolution of spray-dried indomethacin with SBA-15 in pH 6.8 phosphate buffer. Conditions: 900 mL of pH 6.8 phosphate buffer. How it is done: FIG. 15 illustrates dissolution profiles of spray-dried indomethacin with SBA-15 in powder form and tablet form, and a comparison with raw indomethacin crystal. (900 mL of pH 6.8 phosphate buffer, 50 mg spray-dried indomethacin with SBA-15 in powder form or tablet with 800 mg cornstarch at 1 ton press, raw crystal form is 25 mg).

Data set [2] is described as follows: Storage stability of the amorphous form at 40° C./75% RH (XRD). The following applies: same conditions (40° C./75% RH) for just one week. How it is done: The storage stability was tested in severe storage condition of 75% relative humidity and temperature of 40° C., denoted as 40° C./75% RH.
A broad peak at 2-θ of 15-30° is typical in diffraction patterns of X-ray amorphous silica.
The amorphous state of these drugs formed by spray drying with mesoporous materials is stable after being subject to stress conditions of 40° C./75% RH for at least six months.

Data set [3] is described as follows: Dissolution test of ibuprofen formulations (USP dissolution tester, online UV). Conditions: 900 mL 0.1N HCl at 37° C., 100 rpm. On the procedure: The suspension was spray-dried in a Buchi Spray Drier B290. The inlet temperature was set to 81° C. and the outlet temperature was ˜50° C. The pump speed was set to “20”. […] Stirring speed is 100 rpm. Sample was taken by auto sampling system at interval of 5 min. UV reading was taken at wavelength 222 nm.
The dissolution profile was measured using VK7010 (Varian Co) USP dissolution tester with flow cell online UV-vis analysis system. Stirring rate is 100 rpm and vessel temperature is set at 37° C.
The dissolution is performed using the same method as in Example 1.

The structures appear in SMILES notation.

For `COc1ccc2c(c1)c(CC(=O)O)c(C)n2C(=O)c1ccc(Cl)cc1` [commercial indomethacin, indomethacin], the “dissolution within 15 min” value in data set [1] is 25%.

For the compound `COc1ccc2c(c1)c(CC(=O)O)c(C)n2C(=O)c1ccc(Cl)cc1` [indomethacin], the “stability of amorphous form after storage” value in data set [2] is “re-crystallized”.

Take `CC(C)Cc1ccc(C(C)C(=O)O)cc1` (stereo not shown) [pure ibuprofen crystal, ibuprofen]: the “Dissolution test data 15 min” value in data set [3] (25 mg ibuprofen or equivalent, 15 min) was 17.5%. Besides, the “Dissolution test data 30 min” value in data set [3] (25 mg ibuprofen or equivalent, 30 min) came out at 25.6%. Besides, the “Dissolution test data 45 min” value in data set [3] (25 mg ibuprofen or equivalent, 45 min) was 35.6%. Further, the “dissolved in 15 min” value in data set [3] (powder form, 15 min) was 17.5%. Further, in data set [3] (tablet with 0.8 g cornstarch, 1 ton press, 15 min), the “dissolved within 15 min, tablet form” value worked out at 16.4%.
